Results taken from the supplement of paper PMC10883282.

Experiments:
Test in all cases: relative viability vs DMSO control (72 h) (fraction); higher = more viable cells
[1] = system: KHOS-240S
Summary of the method: (§1)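 After seeding at densities set for 80–90% confluence in 384-well plates, sarcoma cell lines waited 24 h before 2.5 µl of serially diluted compound was added. Source plates held 10 mM down to 0.0002 mM. Plates were incubated 72 h at 37 °C with 5% CO2, with 0.1% DMSO vehicle and a 5 µM positive control, and relative viability was taken from ATPLite as percent growth averaged over up to triplicate wells, with 1 set as full and 0 as none.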

[2] = system: SW872
Summary of the method: as §1

[3] = system: A204
Summary of the method: as §1

[4] = system: SK-LMS-1
Summary of the method: as §1

[5] = system: SYO-1
Summary of the method: as §1

[6] = system: SK-ES-1
Summary of the method: as §1

[7] = system: HS729
Summary of the method: as §1

[8] = system: SW982
Summary of the method: as §1

[9] = system: SW1353
Summary of the method: as §1

[10] = system: G401
Summary of the method: as §1

[11] = system: MES-SA
Summary of the method: as §1

[12] = system: SW684
Summary of the method: as §1

Cc1cc2cc(Oc3ccnc(Nc4cccc(CS(=O)(=O)NCCN(C)C)c4)n3)ccc2[nH]1 [Sulfatinib]
Conditions	relative viability
[1], 0.00017 µM	1.02
[1], 0.00051 µM	1.02
[1], 0.00152 µM	1.02
[1], 0.00457 µM	1.03
[1], 0.01372 µM	1.05
[1], 0.04115 µM	1.02
[1], 0.1235 µM	1.012
[1], 0.3704 µM	0.961
[1], 1.111 µM	0.936
[1], 3.333 µM	0.741
[1], 10 µM	0.382
[2], 0.00017 µM	1.02
[2], 0.00051 µM	1.05
[2], 0.00152 µM	1.02
[2], 0.00457 µM	1.02
[2], 0.01372 µM	1
[2], 0.04115 µM	0.996
[2], 0.1235 µM	1.02
[2], 0.3704 µM	1.02
[2], 1.111 µM	0.973
[2], 3.333 µM	0.88
[2], 10 µM	0.526
[3], 0.00017 µM	1.09
[3], 0.00051 µM	1.08
[3], 0.00152 µM	1.08
[3], 0.00457 µM	1.05
[3], 0.01372 µM	1.07
[3], 0.04115 µM	1.02
[3], 0.1235 µM	1.01
[3], 0.3704 µM	0.878
[3], 1.111 µM	0.536
[3], 3.333 µM	0.283
[3], 10 µM	0.136
[4], 0.00017 µM	1
[4], 0.00051 µM	1.07
[4], 0.00152 µM	1.01
[4], 0.00457 µM	1.04
[4], 0.01372 µM	1.04
[4], 0.04115 µM	1.03
[4], 0.1235 µM	1.03
[4], 0.3704 µM	0.986
[4], 1.111 µM	1.01
[4], 3.333 µM	0.924
[4], 10 µM	0.531
[5], 0.00017 µM	0.943
[5], 0.00051 µM	0.962
[5], 0.00152 µM	0.945
[5], 0.00457 µM	0.938
[5], 0.01372 µM	0.9
[5], 0.04115 µM	0.865
[5], 0.1235 µM	0.805
[5], 0.3704 µM	0.607
[5], 1.111 µM	0.423
[5], 3.333 µM	0.341
[5], 10 µM	0.105
[6], 0.00017 µM	1.03
[6], 0.00051 µM	1.03
[6], 0.00152 µM	1.01
[6], 0.00457 µM	1.03
[6], 0.01372 µM	1.03
[6], 0.04115 µM	1.05
[6], 0.1235 µM	1.03
[6], 0.3704 µM	1.03
[6], 1.111 µM	1
[6], 3.333 µM	0.859
[6], 10 µM	0.455
[7], 0.00017 µM	0.983
[7], 0.00051 µM	0.993
[7], 0.00152 µM	0.979
[7], 0.00457 µM	0.9
[7], 0.01372 µM	0.939
[7], 0.04115 µM	0.872
[7], 0.1235 µM	0.877
[7], 0.3704 µM	0.843
[7], 1.111 µM	0.768
[7], 3.333 µM	0.629
[7], 10 µM	0.49
[8], 0.00017 µM	1.04
[8], 0.00051 µM	1.04
[8], 0.00152 µM	1.05
[8], 0.00457 µM	1.06
[8], 0.01372 µM	1.04
[8], 0.04115 µM	1.03
[8], 0.1235 µM	1.06
[8], 0.3704 µM	1.02
[8], 1.111 µM	0.971
[8], 3.333 µM	0.719
[8], 10 µM	0.226
[9], 0.00017 µM	0.936
[9], 0.00051 µM	0.911
[9], 0.00152 µM	0.925
[9], 0.00457 µM	0.941
[9], 0.01372 µM	0.975
[9], 0.04115 µM	0.922
[9], 0.1235 µM	0.964
[9], 0.3704 µM	0.931
[9], 1.111 µM	0.906
[9], 3.333 µM	0.845
[9], 10 µM	0.565
[10], 0.00017 µM	1.024
[10], 0.00051 µM	0.976
[10], 0.00152 µM	1.01
[10], 0.00457 µM	0.995
[10], 0.01372 µM	1.04
[10], 0.04115 µM	0.993
[10], 0.1235 µM	0.983
[10], 0.3704 µM	1.02
[10], 1.111 µM	0.969
[10], 3.333 µM	0.536
[10], 10 µM	0.157
[11], 0.00017 µM	0.911
[11], 0.00051 µM	0.92
[11], 0.00152 µM	0.913
[11], 0.00457 µM	0.906
[11], 0.01372 µM	0.925
[11], 0.04115 µM	0.894
[11], 0.1235 µM	0.9221
[11], 0.3704 µM	0.9312
[11], 1.111 µM	0.969
[11], 3.333 µM	0.791
[11], 10 µM	0.299
[12], 0.00017 µM	1.11
[12], 0.00051 µM	1.09
[12], 0.00152 µM	1.09
[12], 0.00457 µM	1.12
[12], 0.01372 µM	1.08
[12], 0.04115 µM	1.07
[12], 0.1235 µM	1.04
[12], 0.3704 µM	1.1
[12], 1.111 µM	1.05
[12], 3.333 µM	0.995
[12], 10 µM	0.555
